# Tests used:
# Format in all cases: in vivo, human
# [1] = system: high sensitivity C-reactive protein (hsCRP); test: hsCRP by ELISA, type 2 diabetics; conditions: for hsCRP: DM, 400 mcg; for Mean percentage change in hsCRP / hsCRP Post Tt / hsCRP Pre Tt: type 2 diabetics (Example 3), chromium products 400 mcg; for Mean percentage change in hsCRP: 12 week treatment; for hsCRP Post Tt: post-treatment, 12 weeks; for hsCRP Pre Tt: pre-treatment
# Method: The present clinical study is a prospective, randomized, double blind, placebo-controlled study. Patients of either sex, aged 30-65 years, fasting plasma glucose of 110-126 mg/dl, a glycosylated hemoglobin (HbA1c) between 6.5% and 8% and taking stable dose of anti-diabetic treatment (metformin 1500-2000 mg/day) for the past 8 weeks prior to the screening visit; and having endothelial dysfunction defined as ≤6% change in reflection index (RI) on post salbutamol challenge test were included in the study. Patients with severe uncontrolled hyperglyceamia, uncontrolled hypertension, cardiac arrhythmia, impaired hepatic or renal function, history of malignancy or stroke, smoking, chronic alcoholism, any other serious disease requiring active treatment and treatment with any other herbal supplements, were excluded from the study.
# After screening, all the eligible subjects were randomized to receive either one of the three treatments orally for duration of 12 weeks—Group1—one capsule of Crominex®3+, 200 mcg once daily, Group 2—one capsule Crominex®3+, 400 mcg once daily; Group 3—one capsule of placebo once daily.
# Subjects were required for follow up at 4, 8 and 12 weeks of therapy. At each visit they were evaluated for efficacy and safety. Pharmacodynamic evaluation for endothelial function was conducted at every visit. Blood samples were collected for evaluation of biomarkers before and at the end of treatment. Safety lab investigations for hematological, hepatic and renal biochemical parameters were conducted before and at the end of the study and also as and when required (in case of any adverse drug reaction (ADR). Subjects were enquired for the presence of ADR and the same was recorded in the case report form. Compliance to therapy was assessed by pill count method.
# (§1) Nitric oxide, MDA, Glutathione and levels were estimated spectrophotometrically as follows. Malondialdehyde (MDA) levels were determined as described in Vidyasagar, et al., “Oxidative stress and antioxidant status in acute organophosphorous insecticide poisoning,” Indian J. Pharmacol. (April 2004) 36(2): 76-79. Glutathione levels were determined as described in G. L. Ellman, Arch. Biochem. Biophys. (1959) 82: 70-77 (original determination). Nitric oxide levels were estimated spectrophotometrically as described in Miranda, et al., “A Rapid, Simple Spectrophotometric Method for Simultaneous Detection of Nitrate and Nitrite,” NITRIC OXIDE: Biology and Chemistry (2001) Vol. 5, No. 1, pp. 62-71. hsCRP (high sensitivity C-reactive protein) was determined by ELISA method.
# (§2) When the results with Crominex® 3+ in the above two examples were highly significant, especially with the 400 mcg once daily dose in type 2 diabetics, two more clinical studies (EXAMPLES 3 & 4) were conducted at the same institute, following the same methodology as described earlier, on the individual components of Crominex® 3+, i.e., chromium chloride and Phyllanthus emblica+Shilajit, and other chromium supplements available in the market, i.e., chromium picolinate, chromium polynicotinate and chromium dinicocysteinate, in type 2 diabetics as well as in subjects with metabolic syndrome symptoms.
# [2] = Blood pressure, type 2 diabetics; conditions: type 2 diabetics (Example 3), chromium products 400 mcg; for Diastolic blood pressure Post Tt / Systolic blood pressure Post Tt: post-treatment, 12 weeks; for Diastolic blood pressure Pre Tt / Systolic blood pressure Pre Tt: pre-treatment
# Method: as §2
# [3] = system: high sensitivity C-reactive protein (hsCRP); test: hsCRP by ELISA, metabolic syndrome subjects; set-up: hsCRP Pre Tt / hsCRP Post Tt: unit not given here; conditions: for hsCRP: MS, 400 mcg; for hsCRP Post Tt / Mean percentage change in hsCRP / hsCRP Pre Tt: metabolic syndrome subjects (Example 4), chromium products 400 mcg; for hsCRP Post Tt: after 12 weeks of treatment; for Mean percentage change in hsCRP: after 12 weeks treatment; for hsCRP Pre Tt: pre-treatment
# Method: as §1
# (§3) Patients included in the study, were of either gender, aged 30-68 years, having endothelial dysfunction defined as ≤6% change in reflection index (RI) on post salbutamol challenge test and central obesity as defined by The International Diabetes Federation guidelines, dated 2006, and any two of the following conditions: […]
# (§4) Subjects were reviewed for follow up at 4 weeks, 8 and 12 weeks of therapy. At each visit they were evaluated for efficacy and safety. Pharmacodynamic evaluation for endothelial function was conducted at baseline and end of treatment. Blood samples were collected for evaluation of biomarkers before and at end of treatment. Safety lab investigations for hematological, hepatic and renal biochemical parameters were conducted before and at the end of the study and also as and when required (in case of any adverse drug reaction (ADR)). Subjects were enquired for the presence of ADR and the same was recorded in the case report form. Compliance to therapy was assessed by pill count method.
# (§5) Assessment of endothelial function, biomarkers, safety parameters and primary and secondary efficacy parameters and data analysis were performed as described under the study with type 2 diabetic subjects in Example 1.
# as §2
# lipid profile = test: Lipid profile (TC, HDL-C, LDL-C, TG), metabolic syndrome subjects; conditions: for HDL / LDL / TC / TG: MS; for HDL / LDL / TC / TG / LDL-C, mean percentage change: 400 mcg; for LDL-C, mean percentage change: mean percentage change after 12 weeks of treatment, Example 4; for HDL-C Post Tt / LDL-C Post Tt / Mean percentage change in HDL-C / Mean percentage change in Total Cholesterol / Mean percentage change in Triglycerides / Total Cholesterol Post Tt / Triglycerides Post Tt / HDL-C Pre Tt / LDL-C Pre Tt / Total Cholesterol Pre Tt / Triglycerides Pre Tt: metabolic syndrome subjects (Example 4), chromium products 400 mcg; for HDL-C Post Tt / LDL-C Post Tt / Mean percentage change in HDL-C / Mean percentage change in Total Cholesterol / Mean percentage change in Triglycerides / Total Cholesterol Post Tt / Triglycerides Post Tt: after 12 weeks of treatment; for HDL-C Pre Tt / LDL-C Pre Tt / Total Cholesterol Pre Tt / Triglycerides Pre Tt: pre-treatment
# From the text: All the subjects had undergone complete physical examination, safety lab evaluations at baseline and at the end of the treatment. Samples were collected after an overnight fast of 12 hrs after the last dose of medication for determination of hemoglobin, glycosylated hemoglobin (HbA1c), blood urea, serum creatinine, liver function, lipid profile (Total cholesterol, High density lipoprotein cholesterol (HDL-C), low density lipoprotein cholesterol (LDL-C) using appropriate standard techniques.
# as §3, §4, §5, §2
# [4] = Blood pressure, metabolic syndrome subjects; conditions: metabolic syndrome subjects (Example 4), chromium products 400 mcg; for Diastolic blood pressure Post Tt / Systolic blood pressure Post Tt: after 12 weeks of treatment; for Diastolic blood pressure Pre Tt / Systolic blood pressure Pre Tt: pre-treatment
# From the text: (§6) Patients included in the study, were of either gender, aged 30-68 years, having endothelial dysfunction defined as ≤6% change in reflection index (RI) on post salbutamol challenge test and central obesity as defined by The International Diabetes Federation guidelines, dated 2006, and any two of the following conditions:
# (§7) After screening, all the eligible subjects were randomized to receive either one of the three treatments orally for duration of 12 weeks: group 1—one capsule of Crominex®3+ 200 mcg once daily; group 2—one capsule 400 mcg once daily; group 3—one capsule of Placebo once daily.
# as §4, §2
# fasting plasma glucose = test: Fasting plasma glucose, metabolic syndrome subjects; conditions: for Fasting Glucose: MS, 400 mcg; for Fasting Plasma Glucose Post Tt / Fasting Plasma Glucose Pre Tt: metabolic syndrome subjects (Example 4), chromium products 400 mcg; for Fasting Plasma Glucose Post Tt: after 12 weeks of treatment; for Fasting Plasma Glucose Pre Tt: pre-treatment
# From the text: as §6, §7, §4, §2
Substance,hsCRP [1] [%],Mean percentage change in hsCRP [1],hsCRP Post Tt [1],hsCRP Pre Tt [1] [mg/L],Diastolic blood pressure Post Tt [2] [NS mmHg],Systolic blood pressure Post Tt [2] [NS mmHg],Diastolic blood pressure Pre Tt [2] [mmHg],Systolic blood pressure Pre Tt [2] [mmHg],hsCRP [3] [%],hsCRP Post Tt [3],Mean percentage change in hsCRP [3] [%],hsCRP Pre Tt [3],HDL (lipid profile) [%],LDL (lipid profile) [%],TC (lipid profile) [%],TG (lipid profile) [%],"LDL-C, mean percentage change (lipid profile) [%]",HDL-C Post Tt (lipid profile),LDL-C Post Tt (lipid profile) [mg/dL],Mean percentage change in HDL-C (lipid profile) [%],further results
chromium dinicocysteinate,−8.61,−8.61 ± 12.40 #@NS %,2.56 ± 0.58 @ mg/L,2.79 ± 0.53,76.78 ± 1.22,118.11 ± 2.11,77.00 ± 1.41,118.89 ± 3.08,−13.76,2.24 ± 0.49,−13.76 ± 4.64,2.58 ± 0.48,−0.71,2.11,1.4,1.04,2.11,36.61 ± 5.67 NS mg/dl,113.64 ± 14.96,−0.71 ± 3.95,Mean percentage change in Total Cholesterol (lipid profile): 1.40 ± 1.03%; Mean percentage change in Triglycerides (lipid profile): 1.04 ± 1.06%; Total Cholesterol Post Tt (lipid profile): 184.50 ± 12.49 mg/dL; Triglycerides Post Tt (lipid profile): 171.22 ± 6.92 mg/dL; HDL-C Pre Tt (lipid profile): 36.83 ± 5.22 mg/dL; LDL-C Pre Tt (lipid profile): 111.22 ± 14.34 mg/dL; Total Cholesterol Pre Tt (lipid profile): 181.94 ± 12.10 mg/dL; Triglycerides Pre Tt (lipid profile): 169.44 ± 6.24 mg/dL; Diastolic blood pressure Post Tt [4]: 78.8 ± 2.67 NS mmHg; Systolic blood pressure Post Tt [4]: 122.0 ± 2.66 NS mmHg; Diastolic blood pressure Pre Tt [4]: 80.0 ± 2.99 mmHg; Systolic blood pressure Pre Tt [4]: 124.8 ± 3.37 mmHg; Fasting Glucose (fasting plasma glucose): −2.18%; Fasting Plasma Glucose Post Tt (fasting plasma glucose): 99.50 ± 17.60 NS; Fasting Plasma Glucose Pre Tt (fasting plasma glucose): 101.72 ± 21.41
chromium picolinate,−18.9,−18.90 ± 7.04@$NS %,2.22 ± 0.64 mg/L,2.70 ± 0.63,76.32 ± 2.14,117.47 ± 2.82,76.95 ± 2.70,118.63 ± 2.75,−19.45,2.15 ± 0.40,−19.45 ± 2.98,2.67 ± 0.44,2.1,−2.19,−1.18,−1.07,-2.19,37.84 ± 4.45@ mg/dl,111.55 ± 12.58,2.10 ± 2.84,Mean percentage change in Total Cholesterol (lipid profile): −1.18 ± 0.90%; Mean percentage change in Triglycerides (lipid profile): −1.07 ± 1.20%; Total Cholesterol Post Tt (lipid profile): 182.84 ± 12.60 mg/dL; Triglycerides Post Tt (lipid profile): 167.26 ± 10.71 mg/dL; HDL-C Pre Tt (lipid profile): 37.11 ± 4.32 mg/dL; LDL-C Pre Tt (lipid profile): 114.13 ± 12.80 mg/dL; Total Cholesterol Pre Tt (lipid profile): 185.05 ± 13.03 mg/dL; Triglycerides Pre Tt (lipid profile): 169.11 ± 11.02 mg/dL; Diastolic blood pressure Post Tt [4]: 78.1 ± 2.26 NS mmHg; Systolic blood pressure Post Tt [4]: 121.5 ± 4.15 NS mmHg; Diastolic blood pressure Pre Tt [4]: 79.2 ± 3.58 mmHg; Systolic blood pressure Pre Tt [4]: 123.1 ± 5.39 mmHg; Fasting Glucose (fasting plasma glucose): −4.27%; Fasting Plasma Glucose Post Tt (fasting plasma glucose): 96.63 ± 13.11 @; Fasting Plasma Glucose Pre Tt (fasting plasma glucose): 100.95 ± 14.05 ^

# From patent publication US10183047B2, “Chromium-containing compositions in combination with Phyllanthus emblica and shilajit having synergistic effects for improving endothelial function and cardiovascular health” (Natreon, Inc., priority 2014, dated 2019)
